Among the data in US20210017607A1, “Methods of Predicting Responsiveness to Cancer Therapies” (The University of Chicago, priority 2019, published 2021) are viability of cells values, retold here.

This experiment has as its system Myc-CAP (STING^lo) cells. Nature of the experiment: Annexin V-PI viability assay. It is filed as cell-based, mouse. As to conditions: rucaparib 500 nM, buparlisib 1 μM, singly and in combination. An excerpt: FIGS. 29A-29M. PARPi alone induces DNA DSBs, but not apoptosis even in combination with PI3Ki in Myc-CAP (STING^lo) cancer cells; PARPi/PI3Ki combination induces intracellular DNA DSBs and proportionate release of MV surface-associated DNA DSBs from B6-Myc (STINGhi) cancer cells without affecting cellular viability; PARPi/PI3K treatment activates tumor-cell extrinsic cGAS/STING pathway within TAMs in vivo via MV surface-associated DNA DSBs released from tumor cells. Myc-CAP cancer cells were treated with the indicated drugs singly or in combination for 36 hours. (29A) Cells were stained with anti-mouse specific p-γH2AX antibody and a fluorescently labeled secondary antibody for determination of DNA DSBs, which were quantified by confocal microscopy. (29B) Protein extracts from cells in 29A were analyzed for the indicated pharmacodynamic biomarkers by western blotting; (29C) Annexin V-PI staining was done to assess frequency of live cells (Annexin V^− PI^−) following drug treatment. (29D) Ultracentrifugation was utilized to purify microvesicles (MVs) from supernatants in treatment groups in (29A) and associated DNA DSBs was quantified by Nanodrop®. Independent experiments n=2. (29E) Ultracentrifugation was utilized to purify MVs from supernatants in indicated treatment groups in FIG. 17A, and associated DNA DSBs were quantified by Nanodrop®; n=2 independent experiments. […]

As for `Nc1cc(C(F)(F)F)c(-c2cc(N3CCOCC3)nc(N3CCOCC3)n2)cn1` [buparlisib], the viability of cells entry was “no change in the viability”.
With `CNCc1ccc(-c2[nH]c3cc(F)cc4c3c2CCNC4=O)cc1` [rucaparib] the entry was “no change in the viability”.
